Data on 4 molecules can be found in patent US10100366B2, “Methods of detecting cancers sensitive to cabozantinib” (Oregon Health & Science University, priority 2015, dated 2018).

One test relates to Ba/F3 CD74-ROS1 cells. In words: Immunoblot analysis of ROS1 and downstream effector phosphorylation, native CD74-ROS1 cells. Particulars: 2 h treatment. It counts as cell-based, human. On the procedure:
Ba/F3 CD74-ROS1 and CD74-ROS1D2033N […] cells were treated with the indicated concentrations of inhibitors for 2 h, pelleted, washed once in ice-cold PBS, and lysed in 200 μL of cell lysis buffer (Cell Signaling Technology) that was supplemented with 0.25% deoxycholate, 0.05% SDS, and protease and phosphatase inhibitors. Equal amounts of protein were extracted with SDS sample buffer for 15 min at 80° C. and resolved on 4-15% Tris-glycine or 4-12% Bis-Tris precast gels (Criterion; Bio-Rad). Proteins transferred to Immobilon-FL membranes (Millipore) were probed with: phospho-ROS1 [Cell Signaling Technology (CST); 3078, 1:1000], total ROS1 (CST; 3266, 1:1000), phospho-ERK1/2 (CST; 9101, 1:1000), total ERK2 (Santa Cruz; sc-1647, 1:2000), phospho-AKT (CST; 4060, 1:1000), AKT (BD Transduction Laboratories; 610860, 1:1000), pSHP2 (CST; 3703), pSTAT3 (CST, 9131), and GAPDH (Ambion; AM4300, 1:5000). Blots were imaged using either a LI-COR Odyssey imaging system or the Bio-Rad ChemiDoc imaging station according to the manufacturer's protocol for immunoblot detection with use of Infrared dye or horseradish peroxidase-conjugated secondary antibodies, respectively.

Test [1] has as its system CD74-ROS1-rearranged lung adenocarcinoma. Put plainly: Patient case: crizotinib treatment, response by RECIST v1.1. It counts as in vivo, human. As to conditions: one patient, 250 mg twice daily. The source says: A never smoker with metastatic lung adenocarcinoma involving the pleura received three cycles of first-line systemic therapy with cisplatin, pemetrexed, and bevacizumab (FIG. 1, FIG. 9).

The test system of test [2] is ROS1-rearranged lung cancers. Particulars: phase 1 expansion cohort data; cited from earlier work.
Test [3] concerns the target T1, Ba/F3 cells expressing native CD74-ROS1 (Homo sapiens, UniProt P08922).
T1 construct: CD74 (fusion partner, N-terminal part of CD74); expressed in transfected cells; host or cells: Ba/F3 (murine pro-B), retroviral transduction, IL-3 withdrawn; the other entry of the earlier key: CD74 (P04233, HLA class II histocompatibility antigen gamma chain)
In words: Cell growth/viability assay (MTS), Ba/F3 native CD74-ROS1. Type of test: cell-based. Particulars: 72 h exposure, read-out: IC50, growth inhibition. How it is done: (§1) CD74-ROS1D2033N was generated using site-directed mutagenesis by following manufacturer's protocol (Agilent). Ba/F3 cells were maintained at densities of 0.5-1.5×10^6 cells/mL and infected with retrovirus encoding native or mutant versions of human CD74-ROS1. GFP-based selection of transduced cells was performed with a FACSAria cell sorter (BD Biosciences). Stable cell lines were washed with complete medium to remove IL-3. Cells that grew out after IL-3 withdrawal were maintained in complete medium and used for in vitro assays.
(§2) Inhibitors were prepared as 1 mM stocks in DMSO prior to each experiment. […] Ba/F3 cells expressing CD74-ROS1 constructs were seeded (800 cells/well; 25 μL) into drug plates using a Multidrop Combi Reagent Dispenser (Thermo Scientific), and plates were incubated for 72 h at 37° C., 5% CO2. Viability was measured using a methanethiosulfonate (MTS)-based assay (CellTiter96 Aqueous One Solution; Promega) read on a Biotek Synergy 2 plate reader. Proliferation experiments were performed three independent times in triplicate.

Test [4] has as its target T2, Ba/F3 cells expressing CD74-ROS1 D2033N (Homo sapiens, UniProt P08922, D2033N).
T2 construct: CD74 (fusion partner, N-terminal part of CD74); expressed in transfected cells; host or cells: Ba/F3 (murine pro-B), retroviral transduction, IL-3 withdrawn; the other entry of the earlier key: CD74 (P04233, HLA class II histocompatibility antigen gamma chain)
Put plainly: Cell growth/viability assay (MTS), Ba/F3 CD74-ROS1 D2033N. It counts as cell-based. On the procedure:
as §1, §2

For test [5], the system named is CD74-ROS1-rearranged lung adenocarcinoma with acquired CD74-ROS1 D2033N mutation. In words: Patient case: cabozantinib after acquired crizotinib resistance (phase II trial NCT01639508), RECIST v1.1. It counts as in vivo, human. As to conditions: one patient, 60 mg daily, at 12 weeks. On the procedure:
The patient received cabozantinib at a dose of 60 mg daily in 28-day cycles as part of an ongoing phase II clinical trial (NCT01639508) with an arm for ROS1-rearranged lung cancers. Inclusion criteria for patients in this trial were as follows: pathologic or cytologic evidence of non-small-cell lung cancer (NSCLC), clinical stage IV or recurrent/medically inoperable disease, a Karnofsky performance status of more than 70%, a life expectancy of more than 12 weeks, adequate hematologic, renal, and hepatic function, and measurable disease. Informed consent was obtained after the nature and possible consequences of the studies were explained. Treatment was discontinued in the event of disease progression, unacceptable toxicity, or patient withdrawal. Dose reductions were permitted as per a prescribed algorithm. Response was assessed using the Response Evaluation Criteria in Solid Tumors (RECIST) version 1.1 (Eisenhauer E A et al, Eur J Cancer 45, 228-247 (2009); incorporated by reference herein). Imaging was performed at baseline, 4 weeks, and every 8 weeks thereafter. In addition, scans to confirm response were performed as per RECIST. […]
Of 644 sequencing reads over that specific region of ROS1 that were at […] depth, the variant frequency of c.6097G>A was 14% in the crizotinib-resistant tumor specimen and undetectable the matched normal peripheral blood control. […]

T2 sequence (P08922 1883-2347 D2033N limits assumed): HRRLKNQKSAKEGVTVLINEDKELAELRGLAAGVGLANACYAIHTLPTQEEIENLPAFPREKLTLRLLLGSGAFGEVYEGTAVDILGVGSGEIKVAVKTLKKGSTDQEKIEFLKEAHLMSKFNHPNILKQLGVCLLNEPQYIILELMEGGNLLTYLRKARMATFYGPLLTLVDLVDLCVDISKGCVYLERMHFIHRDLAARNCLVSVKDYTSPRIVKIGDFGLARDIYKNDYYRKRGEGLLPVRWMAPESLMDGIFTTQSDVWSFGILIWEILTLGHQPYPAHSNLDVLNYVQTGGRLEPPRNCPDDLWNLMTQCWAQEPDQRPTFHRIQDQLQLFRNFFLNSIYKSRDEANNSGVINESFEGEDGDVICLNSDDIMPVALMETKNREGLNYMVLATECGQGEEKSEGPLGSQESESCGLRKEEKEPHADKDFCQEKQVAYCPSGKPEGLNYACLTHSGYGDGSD
T1 sequence (P08922 with tags, fused parts or gaps): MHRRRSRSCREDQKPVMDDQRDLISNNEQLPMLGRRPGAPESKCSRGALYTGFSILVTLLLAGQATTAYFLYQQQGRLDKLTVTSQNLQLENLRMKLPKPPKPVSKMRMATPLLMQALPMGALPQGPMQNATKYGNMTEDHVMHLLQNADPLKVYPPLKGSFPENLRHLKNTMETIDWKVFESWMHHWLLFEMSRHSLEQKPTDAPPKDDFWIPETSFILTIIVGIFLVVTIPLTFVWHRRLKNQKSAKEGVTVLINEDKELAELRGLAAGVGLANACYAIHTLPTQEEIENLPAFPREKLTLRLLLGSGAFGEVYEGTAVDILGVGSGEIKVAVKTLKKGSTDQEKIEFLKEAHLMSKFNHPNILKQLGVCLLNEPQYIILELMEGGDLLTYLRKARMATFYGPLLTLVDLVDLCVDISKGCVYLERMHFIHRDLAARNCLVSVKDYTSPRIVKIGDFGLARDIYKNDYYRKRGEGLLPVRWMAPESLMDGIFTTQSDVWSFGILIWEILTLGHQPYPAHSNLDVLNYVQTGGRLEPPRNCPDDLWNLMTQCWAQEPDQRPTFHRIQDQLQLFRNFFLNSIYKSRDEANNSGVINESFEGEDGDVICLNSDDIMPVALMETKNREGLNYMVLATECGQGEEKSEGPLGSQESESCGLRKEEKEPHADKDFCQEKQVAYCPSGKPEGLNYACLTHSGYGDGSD

As for `C[C@@H](Oc1cc(-c2cnn(C3CCNCC3)c2)cnc1N)c1c(Cl)ccc(F)c1Cl` [crizotinib], in the test with Ba/F3 CD74-ROS1 cells, the “inhibition of phosphorylation of ROS1 and downstream effectors SHP2, ERK1/2, AKT and STAT3” value is recorded as “dose-dependent inhibition”. Further, the “time on drug until widespread disease progression” value in test [1] is 26 months. Besides, in test [1] (RECIST v1.1), the “clinical response (in words)” value is listed as “durable partial response” and the “reduction in disease burden” value was 64%. Further, in test [2], the median progression-free survival was 19 months and the response rate was 72%.

As for `COc1cc2nccc(Oc3ccc(NC(=O)C4(C(=O)Nc5ccc(F)cc5)CC4)cc3)c2cc1OC` [cabozantinib], the IC50 in test [3] stood at 0.78 nM; in test [4] (read-out: IC50, growth inhibition, Ba/F3 CD74-ROS1D2033N cells, 72 h exposure), 2.8 nM. Moreover, the “reduction in disease burden” value in test [5] amounted to 92%.

In the case of `Cc1cc(Nc2ncc(Cl)c(Nc3ccccc3S(=O)(=O)C(C)C)n2)c(OC(C)C)cc1C1CCNCC1` [ceritinib], the “fold decrease in sensitivity, CD74-ROS1D2033N compared to native CD74-ROS1” value in test [4] (Ba/F3 cells, 72 h, ratio of IC50) came out at 4.3 fold.

As to `COc1cc2c(Oc3ccc(NC(=O)C4(C(=O)Nc5ccc(F)cc5)CC4)cc3F)ccnc2cc1OCCCN1CCOCC1` [foretinib], the “sensitivity of CD74-ROS1D2033N mutant (in words)” value in test [4] (Ba/F3 cells, 72 h) is recorded as “remained highly sensitive”.
